# What was measured:
# Assay in all cases: combination Emax (second highest fraction inhibited in the dose matrix, 72 h); higher = more inhibition; extreme values may be limits of the assay
# [1] = tested on: BFTC-905 (Bladder Carcinoma)
# Method in brief: (§1)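 Bliss excess equals the observed combination effect minus the expected value EA + EB − EA·EB, where EA and EB are the effects of each agent alone. Combination Emax is the second-highest inhibition within the matrix. Inhibition was scaled from CellTiter-Glo 2.0 luminescence, with 0 set by vehicle wells and 1 by blank wells, after 72 hours of two-drug dosing of cells plated in 1536-well plates.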
# [2] = tested on: BL-41 (Burkitt's Lymphoma)
# Method in brief: as §1
# [3] = tested on: CAMA-1 (Breast Carcinoma)
# Method in brief: as §1
# CHP-212 (Neuroblastoma) = tested on: CHP-212 (Neuroblastoma)
# Method in brief: as §1
# [4] = tested on: COLO-678 (Colorectal Carcinoma)
# Method in brief: as §1
# [5] = tested on: DND-41 (T-Lymphoblastic Leukemia)
# Method in brief: as §1
# [6] = tested on: HL-60 (Acute Myeloid Leukemia)
# Method in brief: as §1
# [7] = tested on: KARPAS-45 (T-Lymphoblastic Leukemia)
# Method in brief: as §1
# [8] = tested on: KCL-22 (Chronic Myelogenous Leukemia)
# Method in brief: as §1
# [9] = tested on: KM12 (Colorectal Carcinoma)
# Method in brief: as §1
# [10] = tested on: L-540 (Hodgkin's Lymphoma)
# Method in brief: as §1
# [11] = tested on: MFM-223 (Breast Carcinoma)
# Method in brief: as §1
# [12] = tested on: MOLT-16 (T-Lymphoblastic Leukemia)
# Method in brief: as §1
# [13] = tested on: MS751 (Cervical Carcinoma)
# Method in brief: as §1
# [14] = tested on: NCI-H1792 (Lung Adenocarcinoma)
# Method in brief: as §1
# [15] = tested on: PANC-08-13 (Pancreatic Carcinoma)
# Method in brief: as §1
# [16] = tested on: SR (Other Blood Carcinomas)
# Method in brief: as §1
# [17] = tested on: SU-DHL-8 (B-Cell Non-Hodgkin's Lymphoma)
# Method in brief: as §1
# [18] = tested on: SW1417 (Colorectal Carcinoma)
# Method in brief: as §1
# [19] = tested on: TOV-112D (Ovarian Carcinoma)
# Method in brief: as §1
SMILES,combination Emax [1],combination Emax [2],combination Emax [3],combination Emax (CHP-212 (Neuroblastoma)),combination Emax [4],combination Emax [5],combination Emax [6],combination Emax [7],combination Emax [8],combination Emax [9],combination Emax [10],combination Emax [11],combination Emax [12],combination Emax [13],combination Emax [14],combination Emax [15],combination Emax [16],combination Emax [17],combination Emax [18],combination Emax [19]
"CC1(C)CCC(CN2CCN(c3ccc(C(=O)NS(=O)(=O)c4ccc(NCC5CCOCC5)c([N+](=O)[O-])c4)c(Oc4cnc5[nH]ccc5c4)c3)CC2)=C(c2ccc(Cl)cc2)C1 [Venetoclax] + C[C@@H](Nc1cc(F)cc(F)c1)c1cc(C(=O)N(C)C)cc2c(=O)cc(N3CCOCC3)oc12 [AZD8186] (first compound max 1 µM, 7x7, partner max 3 µM)",0.108,0.257,0.434,0.314,0.119,0.921,0.942,0.833,0.299,0.0675,0.661,0.11,0.629,0.169,0.109,0.184,0.81,0.254,0.172,0.102
"CC1(C)CCC(CN2CCN(c3ccc(C(=O)NS(=O)(=O)c4ccc(NCC5CCOCC5)c([N+](=O)[O-])c4)c(Oc4cnc5[nH]ccc5c4)c3)CC2)=C(c2ccc(Cl)cc2)C1 [Venetoclax] + Cc1cc2ncnn2cc1Nc1ncc2c(n1)n(C1CCOCC1)c(=O)n2C [AZD7648] (first compound max 1 µM, 7x7, partner max 10 µM)",0.207,0.17,0.228,0.314,0.16,0.885,0.778,0.6,0.159,0.21,0.787,0.161,0.855,0.191,0.397,0.218,0.82,0.354,0.25,0.315
"CC1(C)CCC(CN2CCN(c3ccc(C(=O)NS(=O)(=O)c4ccc(NCC5CCOCC5)c([N+](=O)[O-])c4)c(Oc4cnc5[nH]ccc5c4)c3)CC2)=C(c2ccc(Cl)cc2)C1 [Venetoclax] + Cn1cnc2c(F)c(Nc3ccc(Br)cc3Cl)c(C(=O)NOCCO)cc21 [Selumetinib] (first compound max 1 µM, 7x7, partner max 3 µM)",0.454,0.196,0.0815,0.878,0.485,0.891,0.937,0.317,0.318,0.555,0.493,0.24,0.691,0.191,0.251,0.184,0.791,0.31,0.489,0.156
